Data as given in ChEMBL document CHEMBL2021786, “The discovery of 2-fluoro-N-(3-fluoro-4-(5-((4-morpholinobutyl)amino)-1,3,4-oxadiazol-2-yl)phenyl)benzamide, a full agonist of the alpha-7 nicotinic acetylcholine receptor showing efficacy in the novel object recognition model of cognition enhancement” (Bioorg Med Chem Lett, 2012).

Legend:
MDR1 = experiment: Intrinsic permeability of the compound in MDCK cells expressing MDR1; type: ADME, cell-based, Canis lupus familiaris; details: dog
[1] = Tmax in po dosed rat; type: ADME, organism-based; details: in vivo
[2] = Half life in Sprague-Dawley rat at 1 mg/kg, iv; type: ADME, organism-based; set-up: dose 1 mg/kg, route intravenous; details: in vivo
[3] = Oral bioavailability in Sprague-Dawley rat at 3 mg/kg; type: ADME, organism-based; details: in vivo
Liver [4] = experiment: Clearance in human liver assessed per gram of tissue; type: ADME, tissue-based
[5] = Blood clearance in Sprague-Dawley rat at 1 mg/kg, iv; type: ADME, organism-based; set-up: dose 1 mg/kg, route intravenous
[6] = Tmax in Sprague-Dawley rat at 3 mg/kg, po; type: ADME, organism-based; set-up: dose 3 mg/kg, route oral; details: in vivo
Liver [7] = experiment: Clearance in rat liver assessed per gram of tissue; type: ADME, tissue-based; details: in vivo
[8] = Ratio of drug level in brain to blood in CD1 mouse at 5 mg/kg, po after 3 hrs; type: ADME, organism-based; set-up: dose 5 mg/kg, route oral
[9] = Ratio of drug level in brain to blood in Lister Hooded rat at 3 mg/kg, po after 3 hrs; type: ADME, organism-based; set-up: dose 3 mg/kg, route oral
Blood = experiment: Drug level in novel object recognition model of rat blood at 0.1 mg/kg, po; type: ADME, organism-based; set-up: dose 0.1 mg/kg, route oral; details: in vivo, read-out: Drug uptake

O=C(Nc1ccc(-c2nnc(NCCCN3CCN4CCC3CC4)o2)cc1)c1ccccc1F
Papp (MDR1): 4.2 ×10⁻⁶ cm/s

COc1cc(NC(=O)c2ccccc2F)ccc1-c1nnc(NCCCN2CCCCC2)o1
Tmax [1]: 3 h

O=C(Nc1ccc(-c2nnc(NCCCCN3CCOCC3)o2)cc1)c1ccccc1F
half-life [2]: 1.6 h
bioavailability [3]: 22%
CLH (Liver [4]): < 0.5 mL/min/g
clearance [5]: 37 mL/min/kg
Tmax [6]: 1 h
CLH (Liver [7]): 0.8 mL/min/g
Kp at 3 h [8]: 0.62
Papp (MDR1): 75.6 ×10⁻⁶ cm/s

O=C(Nc1ccc(-c2nnc(NCCCCN3CCCCC3)o2)cc1)c1ccccc1F
half-life [2]: 2.7 h
Kp at 3 h [9]: 0.99
CLH (Liver [4]): 0.5 mL/min/g
clearance [5]: 42 mL/min/kg
CLH (Liver [7]): < 0.5 mL/min/g
Papp (MDR1): 127 ×10⁻⁶ cm/s

O=C(Nc1ccc(-c2nnc(NCCCCN3CCCCC3)o2)cc1)c1ccccc1
Papp (MDR1): 33.7 ×10⁻⁶ cm/s

O=C(Nc1ccc(-c2nnc(NCCCCN3CCCCC3)o2)cc1)C1CCCCC1
Papp (MDR1): 9.8 ×10⁻⁶ cm/s

COc1cc(NC(=O)c2ccccc2F)ccc1-c1nnc(NCCCCN2CCCCC2)o1
Papp (MDR1): 25.1 ×10⁻⁶ cm/s

COc1cc(NC(=O)c2ccccc2F)ccc1-c1nnc(NCCCCN2CCOCC2)o1
Papp (MDR1): 57.3 ×10⁻⁶ cm/s

O=C(Nc1ccc(-c2nnc(NCCCCN3CCOCC3)o2)c(F)c1)c1ccccc1F
concentration (Blood): 10.5 nM
bioavailability [3]: 20%
CLH (Liver [4]): < 0.5 mL/min/g
clearance [5]: 54 mL/min/kg
Tmax [6]: 1 h
CLH (Liver [7]): < 0.5 mL/min/g
Kp at 3 h [8]: 0.53
Papp (MDR1): 73.6 ×10⁻⁶ cm/s

O=C(Nc1ccc(-c2nnc(NCCCCN3CCOCC3)o2)c(F)c1)c1ccccc1
Papp (MDR1): 28.5 ×10⁻⁶ cm/s

O=C(Nc1ccc(-c2nnc(NCCCCN3CCC(F)CC3)o2)cc1)c1ccccc1F
Papp (MDR1): 70.3 ×10⁻⁶ cm/s
